Literature values as cited in patent publication US20050267009A1, “Method of Treatment of Acute and Persistent Pain” (priority 2004, published 2005).
Read-outs that look alike come from different tables or passages of the source.

Legend:
prostaglandin E2 (PGE2) = conditions: 10 days after CCI, treatment started 12 hours after surgery
COX = conditions: 5 and 7 days after injection
spinal VR1 receptors = target: T1, spinal VR1 receptors (Rattus norvegicus, UniProt O35433); conditions: spinal 0.5-30 microM; greater extent in sham operated than SNL rats
T1 construct: VR1 receptors, present on Adelta- and C-fibres and post-synaptic sites within the spinal cord dorsal horn; endogenous in cells; host or cells: rat spinal cord, in vivo electrophysiology
T1 sequence (O35433 whole entry): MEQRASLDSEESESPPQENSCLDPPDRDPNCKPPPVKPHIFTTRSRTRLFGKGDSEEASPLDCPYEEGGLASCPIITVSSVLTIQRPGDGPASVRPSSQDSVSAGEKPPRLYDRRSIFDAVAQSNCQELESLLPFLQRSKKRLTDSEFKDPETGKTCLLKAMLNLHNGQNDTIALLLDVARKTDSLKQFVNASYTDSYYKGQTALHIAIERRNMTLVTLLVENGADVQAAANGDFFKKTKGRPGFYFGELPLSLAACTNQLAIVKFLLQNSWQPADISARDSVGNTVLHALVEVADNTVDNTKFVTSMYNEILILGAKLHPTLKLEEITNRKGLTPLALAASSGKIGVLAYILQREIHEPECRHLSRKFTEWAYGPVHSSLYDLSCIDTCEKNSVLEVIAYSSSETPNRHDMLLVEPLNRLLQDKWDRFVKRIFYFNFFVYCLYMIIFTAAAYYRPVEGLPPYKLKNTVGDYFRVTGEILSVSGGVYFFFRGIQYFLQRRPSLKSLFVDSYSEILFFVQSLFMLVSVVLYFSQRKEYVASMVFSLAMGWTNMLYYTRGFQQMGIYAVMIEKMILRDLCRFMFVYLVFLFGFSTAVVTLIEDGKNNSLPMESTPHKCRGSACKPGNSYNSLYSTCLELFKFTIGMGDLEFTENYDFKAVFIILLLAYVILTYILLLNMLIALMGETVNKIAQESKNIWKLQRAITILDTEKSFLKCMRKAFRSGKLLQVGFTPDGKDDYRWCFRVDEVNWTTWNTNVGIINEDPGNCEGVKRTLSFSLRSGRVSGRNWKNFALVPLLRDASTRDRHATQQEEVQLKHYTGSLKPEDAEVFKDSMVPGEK

nerve root injury = conditions: topical application of disk tissue (nucleus pulposus)
nociceptors = conditions: rat skin in vitro; for sensitization of the heat-evoked CGRP release: applied alone; for EC(50) of heat sensitization of CGRP release: heat-evoked CGRP release
trigeminal nerve fibers = conditions: dura mater
interleukin-10 = conditions: prolonged administration
[1] = test system: spinal neuronal responses
[2] = test system: glia and proinflammatory cytokines; conditions: intrathecal
NOS-2 = conditions: macrophages and astroglial cells, decreased NOS-2 activity and protein
[3] = test system: spinal cord nociceptive transmission; conditions: for wind-up activity: normal rats
[4] = human, in vivo
[5] = in vivo
[6] = systemic HU210 60 microg/kg, sham-operated rats

In the case of `[Cl-].[Cl-].[Mn+2].c1cc2nc(c1)CN[C@@H]1CCCC[C@H]1NCCN[C@@H]1CCCC[C@H]1NC2` [M40403], the “anti-hyperalgesic effects with naloxone” value (superoxide) is given as “not reversed”.

In the case of `CC(C)Cc1ccc(C(C)C(=O)O)cc1` (stereo not shown) [ibuprofen], the “PGE2 levels in injured nerves and DRG” value (prostaglandin E2 (PGE2)) is listed as “reversed” and the “mechanical allodynia induced by intraneural TNF” value (COX) is listed as “reduced”.

In the case of `Oc1cc2c(cc1O)CN(C(=S)NCCc1ccc(Cl)cc1)CCC2` [capsazepine], the “noxious evoked responses of spinal neurones” value (spinal VR1 receptors) is listed as “reduced”.

In the case of `CC(=O)CCCCn1c(=O)c2c(ncn2C)n(C)c1=O` [Pentoxifylline], the “nerve root injury and swelling (dorsal root ganglion compartment syndrome)” value (nerve root injury) is given as “prevented”.

For `O=C1CCC(N2C(=O)c3ccccc3C2=O)C(=O)N1` (stereo not shown) [thalidomide], the “epineurial IL-10 immunoreactive macrophages and recovery of endoneurial IL-10-IR” value (TNF-alpha; CCI) is listed as “enhanced”, the “thermal hyperalgesia and mechanical allodynia” value (TNF-alpha; CCI) is listed as “reduces” and the “endoneurial IL-1 beta-immunoreactivity and IL-6-IR” value (TNF-alpha; CCI, lesioned rat sciatic nerve) is listed as “not altered”. For the same molecule, the “increase of endoneurial TNF-alpha” value (TNF-alpha; first week after CCI, immunohistochemistry and ELISA) was “reduced”, the “decrease in CGRP-IR and SP-IR in the dorsal horn” value (TNF-alpha; operated animals) was “not influenced” and the “increase in met-enkephalin in the dorsal horn” value (TNF-alpha; operated animals) was “further enhanced”.

For IL-8: cytokine interleukin-8, the “sensitization of the heat-evoked CGRP release” value (nociceptors) is listed as “not”.

For `CNS(=O)(=O)Cc1ccc2[nH]cc(CCN(C)C)c2c1` [Sumatriptan], the “nerve fiber induced plasma extravasation” value (trigeminal nerve fibers) is listed as “blocks” and the “nerve fiber mediated vasodilatation and dural arterial flow” value (trigeminal nerve fibers) is listed as “only minor effects”.

In the case of `CNCCCN1c2ccccc2CCc2ccccc21` [desipramine], the “secretion of the anti-inflammatory cytokine interleukin-10” value (interleukin-10) is listed as “significant increase”.

In the case of `N=C(N)NC(=O)c1nc(Cl)c(N)nc1N` [Amiloride], the “blockade of ASICs” value (ASICs) is given as “not potent and not selective”.

In the case of IL-6: cytokine interleukin-6, the “sensitization of the heat-evoked CGRP release” value (nociceptors) is given as “did not induce heat sensitization”, the “electrically evoked C-fibre, initial C-fibre, post discharge and wind-up” value ([1]; following neuropathy, spinal) is given as “dose-related inhibition” and the “electrically evoked neuronal responses” value ([1]; naive rats, spinal 100-500 ng) is given as “no significant effect”. The mechanical neuronal responses ([1]; neuropathic rats, spinal) was “markedly inhibited”.

In the case of `C/C(=N\N=C(N)N)c1cc(NC(=O)CCCCCCCCC(=O)Nc2cc(/C(C)=N/N=C(N)N)cc(/C(C)=N/N=C(N)N)c2)cc(/C(C)=N/N=C(N)N)c1.Cl.Cl.Cl.Cl` [CNI-1493], the “ipsilateral and mirror-image SIN-induced allodynias” value [2] is given as “prevented and reversed”.

In the case of `N=C(N)NCCCCN` [agmatine], the “production of nitric oxide” value (NOS-2) is listed as “inhibits”.

In the case of `O=C(O)CC(O)(C(=O)O)C(F)C(=O)O` (stereo not shown) [fluorocitrate], the “ipsilateral and mirror-image SIN-induced allodynias” value [2] is listed as “reversed”.

In the case of TNF-alpha, the “maximum effect on heat-evoked CGRP release” value (nociceptors) is listed as 350% and the “EC(50) of heat sensitization of CGRP release” value (nociceptors) is listed as 3.1 ng/mL.

In the case of `CCCn1cnc2c1c(=O)n(CCCCC(C)=O)c(=O)n2C` [propentofylline], the “glial activation and enhanced spinal proinflammatory cytokines” value (glial activation; following peripheral nerve injury) is given as “inhibit” and the “analgesic activity of morphine” value (glial activation; propentofylline treatment, neuropathic pain) is given as “restoration”.

For `CCCCCCC(C)(C)c1cc(O)c2c(c1)OC(C)(C)[C@@H]1CC=C(CO)C[C@@H]21` [HU210], the “C-fibre mediated post-discharge response of spinal neurones” value (spinal neurones; spinal administration 0.5-500 ng/50 microl, sham operated rats) is given as “significantly reduced”, the “Adelta-fibre evoked responses of spinal neurones” value (spinal neurones; spinal administration, both sham operated and nerve injured rats) is given as “significantly reduced” and the Adelta-fibre evoked responses (spinal neurones; [6]) is given as 48+/−5 % of control. The “overall C-fibre evoked response” value (spinal neurones; [6]) was 54+/−8 % of control, the post-discharge response (spinal neurones; [6]) was 28+/−12 % of control and the “C- or Abeta-fibre evoked responses of spinal neurones” value (spinal neurones; systemic administration, nerve injured rats) was “did not significantly reduce”.

In the case of `CN(C)CCC=C1c2ccccc2CCc2ccccc21` [amitriptyline], the “secretion of the anti-inflammatory cytokine interleukin-10” value (interleukin-10) is given as “significant increase”.

B1: IL-10: natural anti-inflammatory cytokine (protein, UniProt P29456 19-178, looked up)
Interleukin-10: SKGHSIRGDNNCTHFPVSQTHMLRELRAAFSQVKTFFQKKDQLDNILLTDSLLQDFKGYLGCQALSEMIKFYLVEVMPQAENHGPEIKEHLNSLGEKLKTLWIQLRRCHRFLPCENKSKAVEQVKNDFNKLQDKGVYKAMNEFDIFINCIEAYVTLKMKN
For B1, the “inflammatory mediator TNF-alpha after SCI” value (spinal cord injury; rats with SCI) is given as “decrease” and the “less spinal cord tissue loss than in untreated rats” value (spinal cord injury; single injection within half an hour of SCI) is given as 49%.

B2: IL-1 beta: proinflammatory cytokine interleukin-1 beta (protein, UniProt Q63264 117-268, looked up)
Interleukin-1 beta: VPIRQLHCRLRDEQQKCLVLSDPCELKALHLNGQNISQQVVFSMSFVQGETSNDKIPVALGLKGLNLYLSCVMKDGTPTLQLESVDPKQYPKKKMEKRFVFNKIEVKTKVEFESAQFPNWYISTSQAEHRPVFLGNSNGRDIVDFTMEPVSS
In the case of B2, the wind-up scores ([3]; monoarthritic rats, any dose) is given as “did not significantly change”, the wind-up activity ([3]; higher doses (8.0 ng)) is given as “marginal insignificant effect” and the wind-up activity ([3]; low i.t. doses 0.03-2.0 ng) is given as “dose-dependently enhanced”. For the same molecule, the “maximum effect on heat-evoked CGRP release” value (nociceptors) was about 600% and the “EC(50) of heat sensitization of CGRP release” value (nociceptors) was 2.7 ng/mL.

B3: nerve growth factor: prototypic member of the neurotrophin family (protein, UniProt P25427 122-241, looked up)
Beta-nerve growth factor: SSTHPVFHMGEFSVCDSVSVWVGDKTTATDIKGKEVTVLGEVNINNSVFKQYFFETKCRAPNPVESGCRGIDSKHWNSYCTTTHTFVKALTTDDKQAAWRFIRIDTACVCVLSRKAARRG
In the case of B3, the adverse event [4] is given as “induction of pain has been the major adverse event” and the hyperalgesia [5] is given as “rapid onset of hyperalgesia”.
